Test results reported in ChEMBL document CHEMBL4406807, “Discovery of 3,4,6-Trisubstituted Piperidine Derivatives as Orally Active, Low hERG Blocking Akt Inhibitors via Conformational Restriction and Structure-Based Design” (J Med Chem, 2019).

Legend:
OVCAR-8 = assay: Antiproliferative activity against human OVCAR8 cells; type: functional, cell-based
[1] = target: RAC-alpha serine/threonine-protein kinase (Homo sapiens, UniProt P31749)
Description: Inhibition of human Akt1 expressed in Escherichia coli using STK Substrate 2-biotin as substrate incubated for 1 hr by HTRF assay

HCT-116 = assay: cells; settings: Homo sapiens, HCT-116, 72 h
hERG (KCNH2) = hERG (KCNH2) (Homo sapiens, UniProt Q12809); assay: Inhibition of ERG in human HEK293 cells at 3 uM at -80 mV holding potential by whole-cell patch clamp assay relative to control; type: cell-based; settings: HEK293 cells expressing ERG
LNCaP = assay: Antiproliferative activity against human LNCAP cells; type: functional, cell-based

Sequence of RAC-alpha serine/threonine-protein kinase (P31749 whole entry): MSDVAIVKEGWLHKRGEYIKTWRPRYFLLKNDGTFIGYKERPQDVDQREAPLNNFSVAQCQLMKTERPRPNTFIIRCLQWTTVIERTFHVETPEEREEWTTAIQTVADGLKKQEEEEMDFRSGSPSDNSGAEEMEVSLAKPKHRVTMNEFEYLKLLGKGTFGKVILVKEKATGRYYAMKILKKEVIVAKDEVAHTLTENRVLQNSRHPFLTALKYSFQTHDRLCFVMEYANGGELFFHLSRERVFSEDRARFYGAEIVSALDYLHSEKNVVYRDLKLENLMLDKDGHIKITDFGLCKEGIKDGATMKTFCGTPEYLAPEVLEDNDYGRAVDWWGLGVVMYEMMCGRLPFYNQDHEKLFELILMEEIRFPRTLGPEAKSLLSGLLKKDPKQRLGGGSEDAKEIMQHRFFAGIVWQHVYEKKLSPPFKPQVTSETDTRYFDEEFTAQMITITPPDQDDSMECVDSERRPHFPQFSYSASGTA
Sequence of hERG (KCNH2) (Q12809 whole entry): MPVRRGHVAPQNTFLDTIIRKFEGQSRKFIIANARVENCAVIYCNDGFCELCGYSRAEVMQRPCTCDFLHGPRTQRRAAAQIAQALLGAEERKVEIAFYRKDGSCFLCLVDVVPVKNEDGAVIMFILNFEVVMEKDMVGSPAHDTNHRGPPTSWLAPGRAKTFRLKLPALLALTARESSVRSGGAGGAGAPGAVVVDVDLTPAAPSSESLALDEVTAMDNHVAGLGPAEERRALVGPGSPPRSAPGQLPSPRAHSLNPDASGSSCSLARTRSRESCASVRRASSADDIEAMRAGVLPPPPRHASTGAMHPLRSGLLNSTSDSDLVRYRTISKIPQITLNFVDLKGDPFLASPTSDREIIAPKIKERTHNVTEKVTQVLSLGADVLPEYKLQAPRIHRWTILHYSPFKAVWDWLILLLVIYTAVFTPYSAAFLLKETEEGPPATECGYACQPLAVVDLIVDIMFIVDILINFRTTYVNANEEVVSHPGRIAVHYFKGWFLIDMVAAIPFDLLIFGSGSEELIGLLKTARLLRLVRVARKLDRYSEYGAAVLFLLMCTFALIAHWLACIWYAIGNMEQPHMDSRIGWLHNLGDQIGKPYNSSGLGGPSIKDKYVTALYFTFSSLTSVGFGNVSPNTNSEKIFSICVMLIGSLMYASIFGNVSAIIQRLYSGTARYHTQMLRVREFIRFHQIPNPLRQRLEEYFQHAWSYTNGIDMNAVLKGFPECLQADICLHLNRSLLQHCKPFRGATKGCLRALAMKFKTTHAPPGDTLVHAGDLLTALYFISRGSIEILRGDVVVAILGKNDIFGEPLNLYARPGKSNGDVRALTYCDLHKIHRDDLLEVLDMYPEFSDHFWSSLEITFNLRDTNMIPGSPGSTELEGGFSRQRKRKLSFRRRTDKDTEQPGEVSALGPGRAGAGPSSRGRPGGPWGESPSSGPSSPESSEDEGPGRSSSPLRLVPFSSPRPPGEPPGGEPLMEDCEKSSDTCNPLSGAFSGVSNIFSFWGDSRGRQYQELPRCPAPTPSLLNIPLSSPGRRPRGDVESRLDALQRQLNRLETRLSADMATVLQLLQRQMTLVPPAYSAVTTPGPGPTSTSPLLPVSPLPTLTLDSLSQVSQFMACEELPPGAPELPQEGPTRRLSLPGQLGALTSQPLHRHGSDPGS

| Structure (SMILES) | IC50 (OVCAR-8) | IC50 [1] | IC50 (HCT-116) | inhibition at 3 µM (hERG (KCNH2)) | IC50 (LNCaP) |
| --- | --- | --- | --- | --- | --- |
| Cn1ncc(Cl)c1-c1cc(C(=O)N[C@H]2CNCC[C@@H]2c2ccc(C(F)(F)F)cc2)oc1Cl | 0.9 µM | 0.127 µM | 1.05 µM | – | – |
| CNc1cc(-c2ccc(C(=O)N[C@@H]3CNCC[C@H]3c3ccc(Cl)cc3)o2)ncn1 | 12.3 µM | 0.529 µM | 37.1 µM | – | – |
| Cn1ncc(Br)c1-c1oc(C(=O)N[C@@H]2CNCC[C@H]2c2ccc(Cl)cc2)cc1Br | 4.54 µM | 0.0298 µM | 10.8 µM | – | – |
| Cn1ncc(Cl)c1-c1cc(C(=O)N[C@@H]2CN[C@H](CCNS(C)(=O)=O)C[C@H]2c2ccc(F)c(F)c2)oc1Cl | 1.53 µM | 0.00329 µM | 0.92 µM | 8% | 0.05 µM |
| Cn1ncc(Cl)c1-c1cc(C(=O)NC2CNCCC2c2ccc(Cl)cc2)oc1Cl (stereo not given) | – | 0.0173 µM | – | – | – |
| Cn1ncc(Br)c1-c1ccc(C(=O)N[C@@H]2CNCC[C@H]2c2ccc(F)c(F)c2)cc1 | 2.9 µM | 0.0735 µM | 22.2 µM | – | – |
| Cn1nccc1-c1coc(C(=O)NC2CNCCC2c2ccccc2)c1 (stereo not given) | – | 0.71 µM | – | – | – |
| Cn1ncc(Cl)c1-c1cc(C(=O)N[C@@H]2CNCC[C@H]2c2ccc(Cl)cc2)n(C)c1Cl | 12.4 µM | 0.149 µM | 7.33 µM | – | – |
| Cn1ncc(Cl)c1-c1cc(C(=O)N[C@@H]2CN[C@H](CC(=O)NC3CCC3)C[C@H]2c2ccc(Cl)c(Cl)c2)oc1Cl | 0.61 µM | 0.00798 µM | 0.43 µM | – | 0.08 µM |
| C=CC[C@@H]1C[C@@H](c2ccc(Cl)c(Cl)c2)[C@H](NC(=O)c2cc(-c3c(Cl)cnn3C)c(Cl)o2)CN1 | 0.99 µM | 0.0124 µM | 0.78 µM | – | 0.16 µM |
| Cn1ncc(Cl)c1-c1ccc(C(=O)N[C@@H]2CNCC[C@H]2c2ccc(Cl)cc2)o1 | 4.28 µM | 0.0137 µM | 2.56 µM | – | – |
| Cn1ncc(Cl)c1-c1ccc(C(=O)N[C@@H]2CNCC[C@H]2c2ccc(F)c(F)c2)cn1 | 6.12 µM | 0.215 µM | 34.7 µM | – | – |
| Cn1ncc(Cl)c1-c1cc(C(=O)N[C@@H]2CNCC[C@H]2c2ccc(Cl)c(C(F)(F)F)c2)sc1Cl | 1.15 µM | 0.322 µM | 1.75 µM | – | – |
| O=C(N[C@@H]1CNCC[C@H]1c1ccc(Cl)cc1)c1ccc(-c2ncnc3c2CCC3O)s1 (stereo not given in full) | 24.1 µM | > 1 µM | 23 µM | – | – |
| Cn1cc(-c2c(Cl)cnn2C)cc1C(=O)N[C@@H]1CNCC[C@H]1c1ccc(Cl)cc1 | 6.2 µM | 0.212 µM | 3.04 µM | – | – |
| CC(=O)NCC[C@@H]1C[C@@H](c2ccc(F)c(F)c2)[C@H](NC(=O)c2cc(-c3c(Cl)cnn3C)c(Cl)o2)CN1 | 0.88 µM | 0.00249 µM | 0.92 µM | 7.4% | 0.13 µM |
| Cn1nccc1-c1ccc(C(=O)N[C@@H]2CNCC[C@H]2c2ccc(F)c(F)c2)cc1 | 5.33 µM | 0.0216 µM | 3.72 µM | 25% | – |
| Cn1ncc(Cl)c1-c1cc(C(=O)NC2CNCC2c2ccc(C(F)(F)F)cc2)oc1Cl (stereo not given) | – | 0.538 µM | – | – | – |
| Cn1ncc(Br)c1-c1coc(C(=O)N[C@@H]2CNCC[C@H]2c2ccc(Cl)cc2)c1 | 9.01 µM | 0.0356 µM | 2.31 µM | – | – |
| CCC[C@@H]1C[C@@H](c2ccc(Cl)c(Cl)c2)[C@H](NC(=O)c2cc(-c3c(Cl)cnn3C)c(Cl)o2)CN1 | 1.62 µM | 0.0104 µM | 1.02 µM | 85.3% | – |
| Cn1ncc(Cl)c1-c1ccc(C(=O)N[C@@H]2CNCC[C@H]2c2cccc(F)c2)nc1 | 3.46 µM | 0.104 µM | 4.72 µM | – | – |
| Cn1ncc(Cl)c1-c1cc(C(=O)NC2CNCCC2c2ccccc2)oc1Cl (stereo not given) | – | 0.0176 µM | – | – | – |
| Cn1ncc(Cl)c1-c1cc(C(=O)N[C@@H]2CNCC[C@H]2c2cccc(F)c2)sc1Cl | 8.99 µM | 0.102 µM | 9.43 µM | – | – |
| Cn1nccc1-c1coc(C(=O)N[C@@H]2CNCC[C@H]2c2ccc(Cl)cc2)c1 | 3.5 µM | 0.0294 µM | 1.56 µM | – | – |
| Cn1nccc1-c1ccc(C(=O)N[C@@H]2CNCC[C@H]2c2cccc(F)c2)nc1 | 7.4 µM | 0.0766 µM | 5.63 µM | – | – |
| Cn1nccc1-c1ccc(C(=O)N[C@@H]2CNCC[C@H]2c2ccc(Cl)cc2)o1 | 6.09 µM | 0.23 µM | 9.56 µM | – | – |
| Cn1nccc1-c1ccc(C(=O)N[C@@H]2CNCC[C@H]2c2ccc(F)c(F)c2)cn1 | 2.11 µM | 0.0577 µM | 24.2 µM | – | – |
| Cn1ncc(Cl)c1-c1coc(C(=O)N[C@@H]2CNCC[C@H]2c2ccc(F)c(F)c2)c1 | 1.4 µM | 0.0051 µM | 0.99 µM | – | – |
| Cn1nccc1-c1csc(C(=O)N[C@@H]2CNCC[C@H]2c2ccc(Cl)cc2)c1 | 12.6 µM | 0.188 µM | 8.51 µM | – | – |
| Cn1cc(-c2ccc(C(=O)N[C@@H]3CNCC[C@H]3c3ccc(Cl)cc3)o2)cn1 | 4.41 µM | > 1 µM | 15.1 µM | – | – |
